Test results reported in PubChem BioAssay (NCI).
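96-well plates; 48 h exposure; 5 concentrations. Endpoints by linear interpolation between flanking doses. Not reached: highest tested concentration assigned. GI50: concentration for 50% inhibition of growth. Definition used: TGI = concentration required for complete inhibition of growth.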

Key:
Test in all cases: growth of human tumour cells (NCI), 48 h
RPMI-8226 leukemia = tested on: RPMI-8226 leukemia
HT29 colon = tested on: HT29 colon
A549 NSCLC = tested on: A549 NSCLC
MCF7 breast = tested on: MCF7 breast
HCT-15 colon = tested on: HCT-15 colon
U251 CNS = tested on: U251 CNS
IGROV1 ovarian = tested on: IGROV1 ovarian
T-47D breast = tested on: T-47D breast
DU-145 prostate = tested on: DU-145 prostate
CCRF-CEM leukemia = tested on: CCRF-CEM leukemia

Structure (SMILES) | GI50 (RPMI-8226 leukemia) [µM] | TGI (RPMI-8226 leukemia) [µM] | GI50 (HT29 colon) [µM] | TGI (HT29 colon) [µM] | GI50 (A549 NSCLC) [µM] | TGI (A549 NSCLC) [µM] | GI50 (MCF7 breast) [µM] | TGI (MCF7 breast) [µM] | GI50 (HCT-15 colon) [µM] | TGI (HCT-15 colon) [µM] | GI50 (U251 CNS) [µM] | TGI (U251 CNS) [µM] | GI50 (IGROV1 ovarian) [µM] | TGI (IGROV1 ovarian) [µM] | GI50 (T-47D breast) [µM] | TGI (T-47D breast) [µM] | GI50 (DU-145 prostate) [µM] | TGI (DU-145 prostate) [µM] | GI50 (CCRF-CEM leukemia) [µM] | TGI (CCRF-CEM leukemia) [µM]
CCN1CCN(Cc2ccc3cc(C(=O)Nc4cc(NC(=O)c5ccc6c(c5)OCCO6)ccc4F)ccc3n2)CC1 | 0.0403 | 0.325 | 0.0528 | 11.9 | 0.0511 | 11.6 | 0.183 | 6.75 | 0.0376 | 2.25 | 0.0464 | 11.4 | 0.0297 | 0.848 | 0.0451 | 23 | 0.0371 | 1.18 | 0.118 | 2.54
CCC1=C[C@H]2CN(CCc3c([nH]c4ccccc34)[C@@](C(=O)OC)(c3cc4c(cc3OC)N(C)[C@H]3[C@@](O)(C(=O)OC)[C@H](OC(C)=O)[C@]5(CC)[C@@H]6C[C@@H]6CN6CC[C@]43[C@@H]65)C2)C1 |  |  | 0.0113 | 2.91 | 0.0396 | 9.56 | 0.0131 | 3.61 | 0.0738 | 3.31 | 0.0309 | 3.22 | 0.144 | 6.77 |  |  | 0.0239 | 3.15 | 0.0495 | 4.48
COC(=O)[C@]1(C)CCC[C@]2(C)C3CC4OOC3(C=C4C(C)C)CCC21 (some centres not stated) |  | 36 |  | 29.4 |  | 33.9 |  |  |  | 30.1 |  | 37.1 |  | 35.7 |  |  |  |  |  | 14
C=C1CCC2C(C)(CO)C(O)CCC2(C)C1CC(O)C1=CCOC1=O (configuration not stated) |  | > 100 |  | > 100 |  | > 100 |  |  |  | > 100 |  | 50.7 |  | > 100 |  |  |  |  |  | 84.3
CC1=C(C(=O)Nc2ccc(Cl)c(Cl)c2)C(c2cccc(O)c2)NC(=S)N1 (configuration not stated) | 10.1 | 38.1 |  |  |  |  |  |  | 21.8 | > 50 | 8.82 | 18.1 | 12.8 | 44.2 |  |  | 7.28 | 14.5 |  | 
COC(=O)/C(Br)=C/c1c[nH]c2ccc(Br)cc12 |  |  | 11 | 24.8 |  |  | 10.9 | 26.8 | 6.26 | 21.4 | 10.2 | 28.6 |  |  | 11.1 | 24.5 | 13.2 | 25.9 | 4.87 | 22.8
N#Cc1ccccc1/C=N/O |  | > 66.7 |  | > 100 |  | > 100 |  |  |  | > 56.3 |  | > 100 |  | > 100 |  |  |  |  |  | > 85
CCCN1CN(C(C(=O)N[C@@H]2C(=O)N3C(C(=O)O)=C(C)CSC23)c2ccccc2)CSC1=S (some centres not stated) |  | > 100 |  | > 100 |  | > 100 |  |  |  | > 100 |  | > 100 |  | > 100 |  |  |  |  |  | > 100
C/C(CC(=O)Nc1ccc([N+](=O)[O-])cc1)=N/N=C(N)N |  |  |  | > 100 |  | > 100 |  |  |  |  |  | > 100 |  | > 100 |  |  |  |  |  | > 100
O=C(Nc1ccc(Cl)cc1Cl)/C(Cl)=C1/Sc2ccccc2NC1=O |  | 65.9 |  |  |  | > 100 |  |  |  | > 100 |  | > 100 |  | > 100 |  |  |  |  |  | 83.4
Cc1ccc(S(=O)(=O)NC(=O)Nc2nc(Cl)cc(Cl)n2)cc1 |  | > 100 |  |  |  | > 100 |  |  |  |  |  | > 100 |  | > 100 |  |  |  |  |  | > 100
O=c1nc2[nH]nc(-c3ccccc3)c2n[nH]1 |  | > 100 |  | > 100 |  | > 100 |  |  |  | > 100 |  | > 100 |  | > 100 |  |  |  |  |  | > 100
O=C(Nc1ncc(Cc2ccc(Cl)cc2)s1)c1ccc2c(c1)OCCO2 | 0.0526 | > 100 | 0.171 | > 43.4 | 0.0696 | > 100 | 0.0661 | > 100 | 0.0477 | > 100 | 0.0549 | > 45.3 | 0.126 | > 100 |  |  | 0.05 | 9.38 | 0.0639 | > 100
C=CCn1c(=S)sc2c(=O)[nH]cnc21 |  |  |  | > 100 |  | > 100 |  |  |  | > 100 |  | > 100 |  | > 100 |  |  |  |  |  | > 100
Cc1ccccc1C(C#N)/C(=N/NC(=O)C(=O)NN)C(=O)Nc1cccc(C(F)(F)F)c1 (configuration not stated) |  | > 100 |  | > 100 |  | > 100 |  |  |  | > 100 |  | > 100 |  | > 100 |  |  |  |  |  | > 100
COc1cc([C@@H]2c3cc4c(cc3[C@@H](NC(=O)c3ccc([N+](=O)[O-])cc3)C3COC(=O)[C@@H]32)OCO4)cc(OC)c1O (some centres not stated) |  | 3.62 |  | 5.68 |  | 1.53 |  |  |  | 6.43 |  | 1.21 |  | 3.44 |  |  |  |  |  | 
COc1ccc2c(c1)CC[C@@H]1[C@@H]2CC[C@]2(C)c3c(cc(C(=O)c4ccccc4)c4sccc34)C[C@@H]12 | > 100 | > 100 | > 100 | > 100 | > 100 | > 100 | > 100 | > 100 | > 100 | > 100 | > 100 | > 100 | > 100 | > 100 |  |  | > 100 | > 100 | > 100 | > 100
COc1ccc(/C=C/C(=O)c2ccc(NC(=O)CSc3nnc(-c4cc(OC)c(OC)c(OC)c4)o3)cc2)cc1 | 1.73 | 4.31 | 1.83 | 3.62 | 1.84 | 3.53 | 1.27 | 3.68 | 1.63 | 3.22 | 1.68 | 3.18 |  |  | 2.05 | 5.08 | 1.75 | 3.21 | 1.84 | 4.56
C/C(CN1C(=O)c2ccccc2C1=O)=N\NS(C)(=O)=O |  | > 100 |  | > 100 |  | > 100 |  |  |  | > 100 |  | > 100 |  | > 100 |  |  |  |  |  | > 100
CC(=O)O[C@@H]1CC(=O)O[C@@H]2C[C@@H](CC/C(Cl)=C/C/C=C\1C)O[C@@H]2CO | > 25 | > 25 | > 25 | > 25 | > 25 | > 25 | > 25 | > 25 | > 25 | > 25 | > 25 | > 25 | > 25 | > 25 |  |  | > 22.1 | > 25 |  | 
